Broadly, the melting point is the temperature, or range, at which the solid turns liquid.

Our source for the melting point values is a melting point compilation (Tetko et al.; mined from patent text by program, amines drawn as free bases though some values may be those of a salt).

Compound `CC(=O)[C@@H]1C[C@H](C(=O)OC(C)(C)C)N(C(=O)CNC(=O)Nc2cccc(C)c2)[C@@H]1c1ccccc1` (racemic) came in with a melting point of 100 °C.
For `CN1CC(CN2C(=O)C3(COc4cc5c(cc43)OCO5)c3ccccc32)OC1=O` (stereo unspecified) the value was 98 to 102 °C.
Compound `CC(=O)Nc1ccc(C(=O)CBr)cc1F` registered a melting point of 184 °C.
In turn, `CC1=CC(O)C(OC(=O)C=Cc2ccc(N)cc2)C(C)(C)CC1=O` (stereo unspecified) yielded a melting point of 49 to 50 °C.
Compound `CCOC(=O)CC1=COc2ccc(O)cc2O1` displayed a melting point of 160 °C.
Compound `CC(C)Cc1c(C(=O)O)c(C(F)F)nc(C(F)(F)F)c1C(C#N)=C1CCCO1` displayed a melting point of 192 to 193 °C.
Turning to `COc1ccc2c(c1)OCC(c1ccc(F)cc1)C2c1ccc(O)cc1` (stereo unspecified), the melting point lay within 164 to 165 °C.
The value for `CS(=O)(=O)Nc1cc(N)ccc1OC1CCCCC1` was 152 to 154 °C.
The value for `CC(C)N(C(=O)CC(C#N)(CCN1CCCCC1)c1ccccc1Cl)C(C)C` (stereo unspecified) was 83 to 85 °C; that for `O=C(c1ccc(OC23CC4CC(CC(C4)C2)C3)cc1)N1CCCC1` was 111 to 113 °C.
`CC(=O)C1=C(C)CC2C3CCC4CC(O)CCC4(C)C3C(=O)CC12C` (stereo unspecified) yielded a melting point of 230 to 231 °C.
Compound `COC1CN(C(=O)c2cc(-c3ccccc3)c(=O)n3c2-c2sccc2C3)C1` showed a melting point of 192 to 193 °C.
Consider `Cc1ccc(-n2cccc2-c2ccc(S(C)(=O)=O)cc2)cc1C`, for which the melting point is 134 to 137 °C.
The value for `CCCc1nn(-c2ccc(C(F)(F)F)cc2)cc1CCCOc1c(CC(=O)O)cccc1OC` was 95 to 96 °C.
Turning to `COc1cc(Cl)c2c(c1)NC(=O)C(C)(c1ccc(Br)cc1)C2=O` (stereo unspecified), the melting point was 239 to 240 °C.
On to `Clc1cc(CCc2ccccn2)c2oc(-c3cccs3)nc2c1`, for which the melting point was in the range of 90 to 91 °C.
Compound `CN(C)CCCCCCCCCCOc1ccc(C(=O)c2ccccc2)cc1` yielded a melting point of 33 to 35 °C.
`C[C@@H](CO)Oc1cc(Oc2ccc(C(=O)N3CCC3)cc2)cc(C(=O)Nc2ccn(C)n2)c1` showed a melting point of 131 °C.
The compound `ICCCn1c2ccccc2c2ccccc21` displayed a melting point of 152 to 156 °C.
Turning to `CCOCCNc1nc(C)c(CCO)c(=O)[nH]1`, the melting point was determined as 172 °C.
The value for `N#Cc1ccc(C2CCCC(=O)N2c2ccccc2)cc1` (stereo unspecified) was 120 °C; that for `O=c1ccnc(NCCCN(Cc2ccccc2)c2ccccn2)[nH]1` was 162 to 163 °C.
`c1ccc(Oc2nc(Oc3ccccc3)nc(N3CCOCC3)n2)cc1`: the melting point is 166 to 168 °C.
Turning to `CCC1CC(=Cc2ccccc2Cl)C(=O)O1` (stereo unspecified), the melting point was 38 to 39 °C.
Turning to `CCC(=Nc1ccc2nc(N3CCN(C)CC3)c(N3CCN(C)CC3)nc2c1)N(C)C`, the melting point fell in the range of 173 to 175 °C.
On to `CC(C)(CO)NC(=O)c1nn(-c2ccc(F)cc2F)c2c1C1CCC2CC1`, for which the melting point lay in the range of 128 to 131 °C.
For the compound `O=C1c2ccccc2N=C(c2ccccc2)C1O` (stereo unspecified), the melting point was 260 to 262 °C.
For `Cn1c(S(=O)(=O)c2ccc(C(=O)OCC(C)(C)C)c(Cl)c2)n[nH]c1=O` the value was 177 °C.
`Oc1ccc2nc(-c3ccc(O)c(F)c3)cc(-c3ccc(Cl)cc3)c2c1` displayed a melting point of 140 to 147 °C.
As for `COC(=O)C12Cc3cc(Cl)ccc3C1=NNCO2` (stereo unspecified), the melting point was 124 to 127 °C.
The compound `O=C(O)c1ccc(C(=O)Nc2nnc(-c3cc(Cl)cc(Cl)c3O)s2)nc1` came in with a melting point of 267 °C.
For the compound `COc1ccc(-c2nnn(-c3ccc(C(F)(F)F)cc3F)c2C)cc1`, the melting point fell in the range of 154 to 155 °C.
For `O=c1c(CO)c(-c2ccc(O)cc2)oc2ccccc12` the value was 234 to 235 °C; for `OC1(F)CC(c2ccccc2)=Nc2ccccc21` (stereo unspecified), 298 to 302 °C; for `O=C(Nc1ccccc1)OCC1(COC(=O)Nc2ccccc2)CS(=O)(=O)c2ccccc2C1=O`, 72 to 78 °C.
In turn, `Cc1ccc(-c2nc(Cc3cccc(Br)c3)c(C)o2)cc1` yielded a melting point of 74 to 75 °C.
